Tests used:
Format in all cases: cell-based
[1] = test system: PETR1-YFP and PhCMV*-1-CFP expression units; test: Dual-regulated vector pDuoRex9 (pWW94) in CHO-Triplet42 by fluorescence microscopy; conditions: transient transfection into CHO-Triplet42
[2] = test system: ET1 / plant promoters PETRp1, PETRp8; test: EpOFF erythromycin-repressible GUS expression in Nicotiana tabacum SR1 suspension cells; conditions: erythromycin 250 μg/ml, 48 hours
Procedure: The transformation protocol of SR1 cells was adapted from Wu and Feng (1999, Plant Cell Reports 18: 381-386). In brief, 200 mg of exponentially growing SR1 cells were harvested by centrifugation. The cells were incubated for 15 min. in 2% DMSO and washed twice in fresh medium. Cells were subsequently resuspended in electroporation buffer (5 mM CaCl2; 10 mM NaCl2; 0.4 M sucrose; 8.7% glycerol; 4 mM ascorbate; 10 mM HEPES; pH 6.8) and mixed with desired DNA at a concentration of 0.2 μg/μl. The cell-DNA mixture was incubated for 10 min. on ice electroporated at 700 V/cm and 980 μF using a BioRad Gene Pulser and appropriate cuvettes. […]
Transformed SR1 cells were incubated at 25° C. for 48 h while rocking at 110 rpm. […] Protein concentration of plant extracts was determined using a Bradford assay (Bradford, 1976, Anal. Biochem. 72: 248-254). […] The fluorescence time course was determined using typical 365 nm/455 nm excitation/emission profiles and a Shimadzu RF-5001 PC spectrofluorophotometer.
pBP6 (PCaMV35S-ET1-pAocs, FIG. 9a) was cotransformed either with pBP 18 (PETRp1-GUS-pA35S; FIG. 9b) or pBP36 (PETRp8-GUS-pA35S; FIG. 9b) by electroporation into the Nicotiana tabacum cell line SR1. GUS activity was assessed after 48 hours using a fluorescence-based detection technology.

[3] = biological target: T1, tTA / tetracycline-responsive promoter PhCMV*-1 (Escherichia coli, UniProt P04483); test: SEAP assay in CHO-Triplet42 transfected with PhCMV*-1-SEAP (pMF111); conditions: CHO-Triplet42 + pMF111 (PhCMV*-1); antibiotic 2 μg/ml; 48 h
T1 construct: expressed in transfected cells; host or cells: CHO-Triplet42 (from CHO-TWIN1108)
T1 sequence (P04483 whole entry, added parts left off): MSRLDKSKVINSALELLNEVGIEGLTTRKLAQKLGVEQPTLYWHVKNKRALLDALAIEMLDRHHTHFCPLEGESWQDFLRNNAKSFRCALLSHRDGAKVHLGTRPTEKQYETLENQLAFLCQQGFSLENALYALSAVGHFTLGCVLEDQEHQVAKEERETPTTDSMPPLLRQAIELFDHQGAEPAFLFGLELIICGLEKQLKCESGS
Procedure: (§1) Chinese hamster ovary cells (CHO-K1, ATCC: CCL 61), and HeLa cells (ATCC: CRL-7923) as well as stable cell lines derived thereof were cultured as described before (Fussenegger et al., 1998, Nat. Biotechnol. 16,468-472) in the presence of appropriate antibiotics: G418 400 μg/ml; zeocin 100 μg/ml. Optimized CaPO4 protocols were used for high efficiency transient transfection of all cell lines (Fussenegger et al., 1998. Nat. Biotechnol. 16: 468-472). Transiently transfected cells were routinely analyzed after 48 h for CFP or SEAP expression using fluorescence microscopy and p-nitrophenolphosphate-based light absorbance timecourse, respectively, as described before (Fussenegger et al., 1998, Nat. Biotechnol. 16, 468-472; Berger et al., 1988, Gene 66, 1-10 b). For construction of stable CHO-ET1 and CHO-Triplet42 cell lines, CHO-Ki and CHO-TWIN1108 (Disclosed in PCT application no. 00/65080) were cotransfected with pWW35 and pZeoSV2 (invitrogen). CHO-ET11-SEAP was constructed by cotransfection of pWW38 and pSV2neo (Clontech) into CHO-ET11. The mixed populations were cloned using FACS-mediated single-cell-sorting (FACStar^Plus; Beckton Dickinson). For assessment of dose-response characteristics of PETR3-regulated gene expression, CHO-ET11-SEAP were cultured at cell densities of 50,000/ml for 48 h at various EM concentrations.
(§2) Other antibiotics were eluted from antibiotic test discs (Mast Diagnostica GmbH, Reinfeld, Germany, or bioMérieux, Geneva Switzerland) in cell culture medium at 37° C. for 12 h to reach a final concentration of 30 μg/ml. All macrolide antibiotics were used at a 2 μg/ml concentration unless indicated otherwise.

[4] = test system: ET1/PETR3 positive feedback expression unit; test: Autoregulated pWW46 (PETR3-CFP-IRES-ET1-pA) CFP expression by fluorescence microscopy; conditions: pWW46 in CHO-K1, HeLa, COS-7 or HEK 293-T cells; erythromycin 2 μg/ml
Description: These positive feedback regulation vectors that were constructed contain both the cyan fluorescent protein CFP and ET1 in a dicistronic, PETR3-driven configuration.

[5] = test system: ET1 / erythromycin-responsive promoter PETR3; test: SEAP assay in CHO-Triplet42 transfected with PETR3-SEAP (pWW38); conditions: CHO-Triplet42 + PWW38 (PETR3); antibiotic 2 μg/ml; 48 h
Procedure: as §1, §2
The regulation performance of the EM-based regulation system was compared directly with the widely used TET- and PIP responsive expression concepts. To this end, we have constructed a stable CHO-K1-derived cell line expressing ET1, PIT and tTA (CHO-Triplet42). […] CHO-Triplet42 was transfected with either isogenic (i) PETR3-(pWW38), (ii) a PPIR-(pristinamycin-responsive promoter, pMF172, Fussenegger et al., 2000. supra.), or (iii) a PhCMV*-1-(tetracycline-responsive promoter, pMF111, Fussenegger et al., 2000. supra) driven SEAP expression vector to assess the individual regulation performance of the three antibiotic-responsive gene regulation systems in CHO cells (Table 5).
To analyze the relative regulatory characteristics, we evaluated induction factors (IF; ratio of maximal expression level to antibiotic-repressed expression level).
These repressive effects are still in a range which is tolerable for use in potential medical applications.

For `CC[C@H]1OC(=O)[C@H](C)[C@@H](O[C@H]2C[C@@](C)(OC)[C@@H](O)[C@H](C)O2)[C@H](C)[C@@H](O[C@@H]2O[C@H](C)C[C@H](N(C)C)[C@H]2O)[C@](C)(O)C[C@@H](C)C(=O)[C@H](C)[C@@H](O)[C@]1(C)O` [Erythromycin], the “YFP and CFP expression from pDuoRex9 (fluorescence microscopy)” value [1] was “independent on/off-regulation”, the “GUS expression level in the presence of erythromycin” value ([2]; pBP6 + pBP18 (PETRp1)) was 32.2±3.9 pmoles 4-MU min^−1 mg^−1 protein^−1 and the “GUS expression level in the presence of erythromycin” value ([2]; pBP6 + pBP36 (PETRp8)) was 44.2±4.6 pmoles 4-MU min^−1 mg^−1 protein^−1. For the same molecule, the “SEAP activity [U/L]” value [3] was 195.1 ± 15.1 U/L, the “CFP-expression (fluorescence microscopy)” value [4] was “completely repressed” and the “SEAP activity [U/L]” value [5] was 3.8 ± 0.4 U/L.
